What was measured:
C2C12 myotubes = assay: Fatty acid oxidation ([1-14C]-palmitate) in C2C12 myotubes; format: cell-based, mouse; conditions: 25 μM AvoB, 0.5 mM palmitate-BSA/1 mM L-carnitine, 24 h
Procedure: FAO in cell lines was determined using established methods. […] [1-^14C]-palmitate was prepared and applied to cells as follows: purchased stock supplied in ethanol (PerkinElmer, MA, USA) was dried in vacuo and then re-suspended in a solution containing unlabeled carrier in BSA to yield a mixture of 7% BSA [w/v], 2.5 mM palmitate with [1-^14C]-palmitate at a final concentration of 10 μCi/mL. Following a 16 hour incubation at 37° C., the solution containing radiolabeled palmitate was diluted with respective serum free cell culture media (low glucose RPMI media for INS-1 (832/13) cells and low glucose DMEM for C2C12 myotubes) containing 1 mM L-carnitine to a final concentration of 0.3% BSA, 100 μM palmitate, and 0.4 μCi/mL [1-^14C]-palmitate. Following incubation of treated cells with [1-^14C]-palmitate, 400 μL of well media was transferred to acidification vials containing perchloric acid and capped with CO2 filter traps impregnated with 1M NaOH. […] The CO2 trap was transferred to scintillation vials containing 4 mL of scintillation fluid and complete FAO was quantified using a Tri-Carb 2910 TR liquid scintillation analyzer (PerkinElmer). The amount of radioactivity in the media was also determined after pelleting cells and debris (14,000×g, 10 min); this quantified acid soluble metabolites (ASMs), an indirect measure of incomplete FAO.

INS-1 (832/13) cells = assay: Glucose oxidation (D-[14C(U)]-glucose) in INS-1 (832/13) cells; format: cell-based, rat; conditions: 25 μM AvoB, lipotoxic conditions, vs palmitate only
Procedure: C2C12 myotubes and INS-1 (832/13) cells treated as in the FAO assays described above and then incubated with D-[^14C(U)]-glucose (0.58 μC/mL) and unlabeled glucose (final glucose concentration 200 μM) for 4 h subsequent to which [^14C]—CO2 (representing complete glucose oxidation) and ASMs (representing incomplete glucose oxidation) were captured and quantified as described in the FAO method. For C2C12 myotubes, glucose oxidation and uptake was measured with and without a 30 min pre-incubation with 100 nM insulin to determine basal and insulin-mediated glucose oxidation or uptake, respectively.

[1] = tested on: insulin signaling (pAkt-Ser473), MAPK, AMPK; assay: Immunoblotting (pAkt, pERK1/2, pP38, pAMPKα, PGC-1α) and NAO mitochondrial mass in C2C12 myotubes; format: cell-based, mouse
Procedure: For all ROS studies, INS-1 (832/13) cells and C2C12 myotubes were treated with or without palmitate and FAO inhibitors for 24 h in low glucose cell culture media as described for the FAO assay. After treatment, cells were trypsinized and re-suspended in PBS containing 5 μM of the fluorescent dye MitoSOX® (Molecular Probes, Invitrogen) and allowed to incubate for 5-15 minutes in a humidified atmosphere containing 5% CO2 at 37° C. Cells were then washed in PBS, placed in a 96 well plate and fluorescence was measured by flow cytometry. ROS was quantified by normalizing the mean fluorescence values of live gated cells to vehicle control. Mitochondrial membrane potential (MMP) in INS-1 (832/13) and C2C12 myotubes was measured using the cationic fluorescent dye JC-1 (Molecular Probes). JC-1 accumulates in the mitochondrial matrix in an MMP dependent manner. JC-1 fluoresces green in the cytosol where it exists as a monomer, after entering the mitochondria JC-1 monomers form J aggregates and fluoresce red, thus the red/green fluorescence ratio is used to determine MMP. After all treatments, cells were washed, trypsinized and re-suspended in PBS containing 1 μM JC-1 and allowed to incubate for 5-10 minutes in a humidified atmosphere containing 5% CO2 at 37° C. Cells were then washed in PBS, placed in a 96 well plate and fluorescence was measured by flow cytometry. MMP was quantified by normalizing the mean fluorescence values of live gated cells to vehicle control. Mitochondrial mass was measured using 10-N-nonyl acridine orange (NAO; Enzo Life Sciences, ENZ-52306), which accumulates in the mitochondria in an MMP-independent manner where it binds to cardiolipin in the inner mitochondrial membrane. Cells were treated, washed and collected as described and incubated with 0.35 μM NAO and green fluorescence was measured using flow cytometry. In all analysis (ROS, MMP and mitochondrial mass), forward vs side scatter plots were gated to exclude debris (e.g., dead cells), as cell death is associated with increased ROS and altered membrane potentials. For all cell culture experiments, after drug treatments cells were washed with chilled phosphate-buffered saline (PBS), and lysed in chilled lysis buffer with 1× protease inhibitor cocktail (Sigma). RIPA lysis buffer (Sigma-Aldrich) was used for INS-1 (832/13) cells and muscle lysis buffer for C2C12 myotubes (20 mM HEPES, 10 mM NaCl, 1.5 mM MgCl2, 1 mM DTT, 20% glycerol, and 0.1% Triton-X100). Cells were scraped, mechanically homogenized using a syringe and centrifuged at 14,000×g for 20 min at 4° C. and the supernatants were collected. For preparation of all gastrocnemius muscle lysates, 10 mg frozen tissue (wet weight) was washed in chilled PBS, placed in a dounce homogenizer, lysed in muscle lysis buffer and centrifuged at 14,000×g for 20 min at 4° C. and the supernatant was collected. Protein content for cell and tissue lysates was measured using the BCA protein assay kit (ThermoFisher) according to manufacturer's protocol. Thirty μg protein lysates were prepared in loading buffer and immunoblotting was performed by heating lysates for 5 minutes at 95° C. and subjecting them to gel electrophoresis on 10% SDS-polyacrylamide gels at 150 V for 75 minutes. Using a semi-dry transfer apparatus (Bio-Rad) the gels were then transferred at 25V for 45 minutes to a PVDF membrane and blocked with 5% BSA (Sigma) in tris-buffered saline-tween (TBS-T) for 1 hour. […]

Substance: avocatin B [AvoB]
- Complete FAO ([1-14C]-palmitate oxidation to CO2) (C2C12 myotubes): inhibited complete FAO
- Incomplete FAO (ASM levels) (C2C12 myotubes): did not increase incomplete FAO
- Glucose oxidation (D-[14C(U)]-glucose to CO2) (INS-1 (832/13) cells): greater glucose oxidation compared to cells treated with palmitate only
- Palmitate induced phosphorylation of MAPK ERK1/2 and P38 ([1]; 25 μM AvoB, 0.5 mM palmitate, 24 h): reduce palmitate induced phosphorylation
- AMPK activation (pAMPKα-Thr172) ([1]; 25 μM AvoB, 24 h): independent of AMPK activation
- Mitochondrial biogenesis (PGC-1α protein, NAO dye) ([1]; 25 μM AvoB, 24 h): independent
- Insulin signaling (insulin stimulated phosphorylation of AKT Ser473) ([1]; 0.5 mM palmitate 24 h, 100 nM insulin 30 min, AvoB 25 μM, DCA 1 mM, TRI 25 μM): restore the suppressive effects of lipotoxicity on insulin stimulated phosphorylation of AKT^Ser473
